For assay [1], the target named is T1, Tyrosine-protein phosphatase non-receptor type 1 (Homo sapiens, UniProt P18031).
T1 sequence (P18031 whole entry): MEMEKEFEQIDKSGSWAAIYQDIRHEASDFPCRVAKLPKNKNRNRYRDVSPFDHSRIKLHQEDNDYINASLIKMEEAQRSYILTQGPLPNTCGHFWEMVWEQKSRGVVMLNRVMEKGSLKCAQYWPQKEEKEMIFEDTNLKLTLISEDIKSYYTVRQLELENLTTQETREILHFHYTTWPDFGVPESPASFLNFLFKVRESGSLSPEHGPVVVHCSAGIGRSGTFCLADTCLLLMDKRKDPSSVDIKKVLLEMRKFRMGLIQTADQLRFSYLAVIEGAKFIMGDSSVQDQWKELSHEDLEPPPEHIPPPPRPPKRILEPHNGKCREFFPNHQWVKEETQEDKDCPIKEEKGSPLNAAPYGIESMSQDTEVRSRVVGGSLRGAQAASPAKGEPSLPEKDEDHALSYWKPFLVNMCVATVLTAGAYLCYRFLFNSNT
Nature of the assay: Dissociation constant against Protein-tyrosine phosphatase 1B receptor was determined.

Assay [2] concerns the target T1, Tyrosine-protein phosphatase non-receptor type 1.
Description: Binding affinity against protein tyrosine phosphatase PTB1B
Assay [3] addresses Tyrosine-protein phosphatase non-receptor type 2 (Homo sapiens, UniProt P17706). Put plainly: Inhibitory constant of compound against T cell protein tyrosine phosphatase was determined. It counts as cell-based.

Sequence of Tyrosine-protein phosphatase non-receptor type 2 (P17706 whole entry, looked up): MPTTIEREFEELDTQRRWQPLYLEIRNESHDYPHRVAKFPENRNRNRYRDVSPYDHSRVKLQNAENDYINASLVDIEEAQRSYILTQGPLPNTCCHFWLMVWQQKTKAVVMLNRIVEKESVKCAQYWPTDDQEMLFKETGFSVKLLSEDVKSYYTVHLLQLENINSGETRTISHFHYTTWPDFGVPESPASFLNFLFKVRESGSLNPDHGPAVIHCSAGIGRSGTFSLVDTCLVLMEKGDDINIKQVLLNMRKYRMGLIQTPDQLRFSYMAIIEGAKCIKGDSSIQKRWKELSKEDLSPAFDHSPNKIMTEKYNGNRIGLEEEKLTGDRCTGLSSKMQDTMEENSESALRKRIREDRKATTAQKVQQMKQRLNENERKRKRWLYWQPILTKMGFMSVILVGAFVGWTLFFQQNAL

As to `O=C(O)c1cc(-c2ccc(Br)cc2)on1`, the Kd – broadly, the concentration at which binding is half-saturated – in assay [1] turned out to be 800 µM. For the compound `CCCC(=O)Nc1cccc(-c2cc(C(=O)O)no2)c1`, the Ki – broadly, the equilibrium dissociation constant of an inhibitor or competing ligand from its target – in assay [2] turned out to be 148 µM; in assay [3] it was 634 µM.

These data come from ChEMBL document CHEMBL1145108, “Fragment screening and assembly: a highly efficient approach to a selective and cell active protein tyrosine phosphatase 1B inhibitor” (J Med Chem, 2003).
